melting point	Structure (SMILES)
101 to 102 °C	CCOC(=O)C1C[C@@H](OS(C)(=O)=O)[C@@H](NC(C)=O)[C@@H]2OC(C)(C)O[C@H]12 (stereo partly drawn)
106 to 107 °C	CCOC(=O)C1=C[C@@H]2[C@H]([C@@H]3OC(C)(C)O[C@H]13)N2S(=O)(=O)c1ccc(C)cc1 (stereo partly drawn)
154 °C	CCOC(=O)C1=C[C@@H](OC(CC)CC)[C@H](NC(C)=O)[C@H](O)[C@@H]1O (stereo in doubt)
128 °C	CC(=O)N1[C@@H]2[C@@H]3OC(C)(C)O[C@@H]3C(Br)=C[C@@H]21
156 to 158 °C	CCOC(=O)C1C[C@@H](O)[C@@H](NC(C)=O)[C@@H]2OC(C)(C)O[C@H]12 (stereo partly drawn)
48 °C	CCOC(=O)C1=CC=C[C@H](O)[C@@H]1O
181 °C	CC(=O)N[C@H]1C=C(Br)[C@H]2OC(C)(C)O[C@H]2[C@@H]1Br
163 to 165 °C	CCOC(=O)C1=C[C@@H](OS(C)(=O)=O)[C@@H](NC(C)=O)[C@@H]2OC(C)(C)O[C@H]12
112 to 115 °C	CCOC(=O)C1=C[C@@H](OC(CC)CC)[C@H](NC(C)=O)[C@@H]2OC(C)(C)O[C@H]12
153 to 154 °C	Cc1ccc(S(=O)(=O)N[C@H]2[C@@H]3OC(C)(C)O[C@@H]3C(Br)=C[C@H]2NC(=O)OC(C)(C)C)cc1
89 to 90 °C	CCOC(=O)[C@@]12C=C[C@H]([C@@H]3OC(C)(C)O[C@@H]31)N(C(C)=O)O2
119 to 120 °C	Cc1ccc(S(=O)(=O)N[C@H]2[C@@H]3OC(C)(C)O[C@@H]3C(Br)=C[C@H]2N=[N+]=[N-])cc1

Reference: patent publication US20110201577A1 (published 2011)
